Data from patent publication US20160340322A1 (NISSAN CHEMICAL INDUSTRIES, LTD., priority 2013, published 2016).

Each molecule was assayed against T1, Human T-type calcium channel (Cav 3.2) (Homo sapiens, UniProt O95180) (assay: Calcium Influx Inhibition Assay). Settings: human T-type calcium channel (Cav 3.2) expressing HEK293 cells; FLIPR Calcium 4 fluorescence; 30 min compound incubation; read-out: T-type calcium channel inhibition concentration IC50.
T1 construct: Edward Perez-Reyes, University of Virginia, USA; host or cells: HEK293
Format: cell-based
Experimental: 1. Calcium Influx Inhibition Assay Human T-type calcium channel (Cav 3.2) expressing HEK293 cells were introduced from Prof. Edward Perez-Reyes, University of Virginia, USA. The calcium-sensitive fluorescent dye used was FLIPR Calcium 4 Assay Kit (Molecular Devices). To a black 96-well plate with a clear bottom coated with type I collagen, the human T-type calcium channel (Cav 3.2) expressing HEK293 cells were seeded and cultured overnight, and the culture medium was removed. A solution of the calcium-sensitive fluorescent dye was added, and the resultant plate was incubated at 37° C. in an atmosphere of 5% carbon dioxide for 30 minutes. To the plate, a diluted solution of a compound was added, and subjected to further incubation at 37° C. in an atmosphere of 5% carbon dioxide for 30 minutes. While fluorescence was continuously analyzed from the bottom with a FlexStation 3 (Molecular Devices), a calcium solution was added. […] Based on the rise value in the fluorescence from the base line, the inhibition percentage was calculated. The logarithms of compound concentrations were plotted with respect to the inhibition activities to obtain an IC50 value.

T1 sequence (O95180 whole entry): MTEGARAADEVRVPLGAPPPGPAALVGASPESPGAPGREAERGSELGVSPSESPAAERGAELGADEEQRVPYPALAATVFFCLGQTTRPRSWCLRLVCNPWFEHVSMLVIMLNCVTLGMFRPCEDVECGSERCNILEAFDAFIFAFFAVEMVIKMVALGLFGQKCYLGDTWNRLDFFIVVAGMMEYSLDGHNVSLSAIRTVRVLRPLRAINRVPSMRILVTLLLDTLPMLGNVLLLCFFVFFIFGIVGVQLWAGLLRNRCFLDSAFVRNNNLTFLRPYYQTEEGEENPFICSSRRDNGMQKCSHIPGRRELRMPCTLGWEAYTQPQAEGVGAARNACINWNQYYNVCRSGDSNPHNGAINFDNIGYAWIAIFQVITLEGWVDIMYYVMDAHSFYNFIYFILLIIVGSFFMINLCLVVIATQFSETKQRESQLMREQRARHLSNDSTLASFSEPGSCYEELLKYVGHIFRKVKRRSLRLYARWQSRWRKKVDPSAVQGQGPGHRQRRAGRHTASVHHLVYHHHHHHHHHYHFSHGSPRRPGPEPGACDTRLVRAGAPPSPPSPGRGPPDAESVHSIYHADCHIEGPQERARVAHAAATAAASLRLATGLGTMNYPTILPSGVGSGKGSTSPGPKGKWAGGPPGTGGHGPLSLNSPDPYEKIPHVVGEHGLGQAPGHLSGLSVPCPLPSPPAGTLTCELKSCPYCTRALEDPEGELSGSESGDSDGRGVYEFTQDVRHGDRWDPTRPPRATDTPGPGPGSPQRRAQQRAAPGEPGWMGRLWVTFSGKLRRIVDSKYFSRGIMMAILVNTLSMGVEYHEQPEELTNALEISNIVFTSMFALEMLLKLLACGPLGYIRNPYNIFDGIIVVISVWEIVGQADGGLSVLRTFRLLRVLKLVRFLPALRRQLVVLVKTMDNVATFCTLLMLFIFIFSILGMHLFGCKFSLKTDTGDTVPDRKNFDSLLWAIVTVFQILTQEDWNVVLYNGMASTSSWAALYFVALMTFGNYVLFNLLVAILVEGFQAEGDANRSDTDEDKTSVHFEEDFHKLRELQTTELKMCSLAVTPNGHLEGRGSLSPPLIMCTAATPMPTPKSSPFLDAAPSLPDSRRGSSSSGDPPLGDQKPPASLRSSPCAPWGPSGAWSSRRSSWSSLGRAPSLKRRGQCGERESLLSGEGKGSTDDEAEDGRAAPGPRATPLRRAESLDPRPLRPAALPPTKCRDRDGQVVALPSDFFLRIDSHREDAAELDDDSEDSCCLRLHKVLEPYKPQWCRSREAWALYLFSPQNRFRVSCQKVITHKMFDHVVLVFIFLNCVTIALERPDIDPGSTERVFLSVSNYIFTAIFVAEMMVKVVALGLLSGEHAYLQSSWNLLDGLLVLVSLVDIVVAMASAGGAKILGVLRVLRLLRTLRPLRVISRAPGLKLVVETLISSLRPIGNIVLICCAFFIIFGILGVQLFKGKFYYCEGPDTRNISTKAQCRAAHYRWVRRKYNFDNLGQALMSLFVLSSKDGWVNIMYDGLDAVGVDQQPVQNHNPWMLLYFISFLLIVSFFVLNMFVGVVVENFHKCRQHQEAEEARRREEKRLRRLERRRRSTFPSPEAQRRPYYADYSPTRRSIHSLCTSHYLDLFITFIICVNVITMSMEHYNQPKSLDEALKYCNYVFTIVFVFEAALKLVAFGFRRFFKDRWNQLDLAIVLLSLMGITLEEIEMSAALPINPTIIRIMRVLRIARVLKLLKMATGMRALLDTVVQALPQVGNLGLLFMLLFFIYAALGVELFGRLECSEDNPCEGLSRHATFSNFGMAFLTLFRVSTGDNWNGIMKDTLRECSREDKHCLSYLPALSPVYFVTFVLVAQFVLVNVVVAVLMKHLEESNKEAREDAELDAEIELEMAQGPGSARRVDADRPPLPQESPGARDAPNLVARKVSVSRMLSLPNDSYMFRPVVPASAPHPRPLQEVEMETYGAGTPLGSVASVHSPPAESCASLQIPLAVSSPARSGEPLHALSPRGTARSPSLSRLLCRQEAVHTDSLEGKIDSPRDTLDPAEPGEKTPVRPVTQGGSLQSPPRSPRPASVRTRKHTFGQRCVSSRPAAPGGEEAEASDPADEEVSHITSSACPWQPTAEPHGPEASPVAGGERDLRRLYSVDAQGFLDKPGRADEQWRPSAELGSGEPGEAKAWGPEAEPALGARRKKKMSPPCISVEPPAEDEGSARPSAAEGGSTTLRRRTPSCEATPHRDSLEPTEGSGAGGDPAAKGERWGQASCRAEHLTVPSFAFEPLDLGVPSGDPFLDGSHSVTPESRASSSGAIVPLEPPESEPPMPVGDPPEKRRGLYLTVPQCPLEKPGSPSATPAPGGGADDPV

SMILES | IC50 [nM]
COc1cccc(C2=CCN(c3cnn(Cc4ccc(C(F)(F)F)s4)c(=O)n3)C[C@@H]2O)n1 [Synthesis Example 32] | 48
Cc1nc(N2CCN(c3cnn(Cc4ccc(C(F)(F)F)s4)c(=O)n3)CC2)ccc1F [Synthesis Example 33] | 32
O=c1nc(N2CCN(c3ccc(F)c(Cl)c3)CC2)cnn1Cc1ccc(C(F)(F)F)s1 [Synthesis Example 34] | 61
O=c1nc(N2CC=C(c3ccc(F)cc3)C(F)C2)cnn1Cc1ccc(C(F)(F)F)s1 (stereo not drawn) [Synthesis Example 35, 5-[5-Fluoro-4-(4-fluorophenyl)-5,6-dihydropyridin-1(2H)-yl]-2-{[5-(trifluoromethyl)thiophen-2-yl]methyl}-1,2,4-triazin-3(2H)-one] | 31
NC1CN(c2cnn(Cc3ccc(C(F)(F)F)s3)c(=O)n2)CC=C1c1ccc(F)cc1 (stereo not drawn) [Synthesis Example 36, 5-[5-Amino-4-(4-fluorophenyl)-5,6-dihydropyridin-1(2H)-yl]-2-{[5-(trifluoromethyl)thiophen-2-yl]methyl}-1,2,4-triazin-3(2H)-one] | 3.4
Cc1ccc(C2=CCN(c3cnn(Cc4ccc(C(F)(F)F)s4)c(=O)n3)C[C@@H]2O)o1 [Synthesis Example 37, (R)-5-[5-Hydroxy-4-(5-methylfuran-2-yl)-5,6-dihydropyridin-(2H)-yl]-2-{[5-(trifluoromethyl)thiophen-2-yl]methyl}-1,2,4-triazin-3(2H)-one] | 4.8
Cn1cc(C2=CCN(c3cnn(Cc4ccc(C(F)(F)F)s4)c(=O)n3)C[C@@H]2O)cn1 [Synthesis Example 38, (R)-5-[5-Hydroxy-4-(1-methyl-1H-pyrazol-4-yl)-5,6-dihydropyridin-1(2H)-yl]-{[5-(trifluoromethyl)thiophen-2-yl]methyl}-1,2,4-triazin-3(2H)-one] | 180
Cn1ccc(C2=CCN(c3cnn(Cc4ccc(C(F)(F)F)s4)c(=O)n3)CC2)n1 [Synthesis Example 39, 5-[4-(1-Methyl-1H-pyrazol-3-yl)-5,6-dihydropyridin-1(2H)-yl]-2-{[5-(trifluoromethyl)thiophen-2-yl]methyl}-1,2,4-triazin-3(2H)-one] | 1300
Cc1cc(N2CCN(c3cnn(Cc4ccc(C(F)(F)F)s4)c(=O)n3)CC2)cs1 [Synthesis Example 40, 5-[4-(5-Methylthiophen-3-yl)piperazin-1-yl]-2-{[5-(trifluoromethyl)thiophen-2-yl]methyl}-1,2,4-triazin-3(2H)-one] | 69
O=c1nc(N2CCN(c3ccc(Cl)cc3)CC2)cnn1Cc1ccc(C(F)(F)F)s1 [Synthesis Example 41, 5-[4-(4-Chlorophenyl)piperazin-1-yl]-2-{[5-(trifluoromethyl)thiophen-2-yl]methyl}-1,2,4-triazin-3(2H)-one] | 29
COc1ccc2c(c1)CCN(c1cnn(Cc3ccc(C(F)(F)F)s3)c(=O)n1)C2C (stereo not drawn) [Synthesis Example 42, 5-[6-Methoxy-1-methyl-3,4-dihydroisoquinolin-2(1H)-yl]-2-{[5-(trifluoromethyl)thiophen-2-yl]methyl}-1,2,4-triazin-3(2H)-one] | 600
O=c1nc(N2CC=C(c3ccc(F)c(Cl)c3)[C@@H](O)C2)cnn1Cc1cnc(C(F)(F)F)s1 [Synthesis Example 43, (R)-5-[4-(3-Chloro-4-fluorophenyl)-5-hydroxy-5,6-dihydropyridin-1(2H)-yl]-2-{[2-(trifluoromethyl)thiazol-5-yl]methyl}-1,2,4-triazin-3(2H)-one] | 54
O=c1nc(N2CCc3cc(C(F)(F)F)ccc3C2)cnn1Cc1cnc(C(F)(F)F)s1 [Synthesis Example 44, 5-[6-(trifluoromethyl)-3,4-dihydroisoquinolin-2-(1H)-yl]-2-{[2-(trifluoromethyl)thiazol-5-yl]methyl}-1,2,4-triazin-3(2H)-one] | 570
Cc1ccc(C2=CCN(c3cnn(Cc4cnc(C(F)(F)F)s4)c(=O)n3)C[C@@H]2O)cc1F [Synthesis Example 45, (R)-5-[4-(3-Fluoro-4-methylphenyl)-5-hydroxy-5,6-dihydropyridin-1(2H)-yl]-2-{[2-(trifluoromethyl)thiazol-5-yl]methyl}-1,2,4-triazin-3(2H)-one] | 130
O=c1nc(N2CC=C(c3ccc(F)cc3)[C@@H](O)C2)cnn1Cn1ccc(C(F)(F)F)n1 [Synthesis Example 46, (R)-5-[4-(4-Fluorophenyl)-5-hydroxy-5,6-dihydropyridin-(2H)-yl]-2-{[3-(trifluoromethyl)-1H-pyrazol-1-yl]methyl}-1,2,4-triazin-3(2H)-one] | 110
O=c1nc(N2CC=C(c3ccc(F)cc3)[C@@H](O)C2)cnn1Cn1cc(Cl)cn1 [Synthesis Example 47, (R)-2-[(4-Chloro-1H-pyrazol-1-yl)methyl]-5-[4-(4-fluorophenyl)-5-hydroxy-5,6-dihydropyridin-1(2H)-yl]-1,2,4-triazin-3(2H)-one] | 2600
CC(C)(C)c1ccc(Cn2ncc(N3CC=C(c4ccc(F)cc4)[C@@H](O)C3)nc2=O)s1 [Synthesis Example 48, (R)-2-{[5-(Tert-butyl)thiophen-2-yl]methyl}-5-[4-(4-fluorophenyl)-5-hydroxy-5,6-dihydropyridin-(2H)-yl]-1,2,4-triazin-3(2H)-one] | 6.4
O=c1nc(N2CC=C(c3ccc(F)cc3)[C@@H](O)C2)cnn1Cn1ccc(C(F)(F)C(F)(F)F)n1 [Synthesis Example 49, (R)-5-[4-(4-Fluorophenyl)-5-hydroxy-5,6-dihydropyridin-1(2H)-yl]-2-{[3-(perfluoroethyl)-1 H-pyrazol-1-yl]methyl}-1,2,4-triazin-3(2H)-one] | 25
CC(C)(C)c1ncc(Cn2ncc(N3CC=C(c4ccc(F)cc4)[C@@H](O)C3)nc2=O)o1 [Synthesis Example 50, (R)-2-{[2-(Tert-butyl)oxazol-5-yl]methyl}-5-[4-(4-fluorophenyl)-5-hydroxy-5,6-dihydropyridin-1(2H)-yl]-1,2,4-triazin-3(2H)-one] | 62
O=c1nc(N2CC=C(c3ccc(F)cc3)[C@@H](O)C2)cnn1Cc1ccc(OS(=O)(=O)C(F)(F)F)nc1 [Synthesis Example 51, (R)-5-({5-[4-(4-Fluorophenyl)-5-hydroxy-5,6-dihydropyridin-1(2H)-yl]-3-oxo-1,2,4-triazin-2(3H)-yl}methyl)pyridin-2-yl trifluoromethanesulfonate] | 5.6
Cc1ccc(C2=CCN(c3cnn(Cc4ccc(C(F)(F)F)s4)c(=O)n3)C[C@@H]2O)cc1F [Synthesis Example 52, (R)-5-[4-(3-Fluoro-4-methylphenyl)-5-hydroxy-5,6-dihydropyridin-1(2H)-yl]-2-{[5-(trifluoromethyl)thiophen-2-yl]methyl}-1,2,4-triazin-3(2H)-one] | 7.9
O=c1nc(N2CCc3cc(C(F)(F)F)ccc3C2)cnn1Cc1ccc(C(F)(F)F)s1 [Synthesis Example 53, 5-[6-(trifluoromethyl)-3,4-dihydroisoquinolin-2(1H)-yl]-2-{[5-(trifluoromethyl)thiophen-2-yl]methyl}-1,2,4-triazin-3(2H)-one] | 170
O=c1nc(N2CC=C(c3ccc(F)c(Cl)c3)[C@@H](O)C2)cnn1Cc1ccc(C(F)(F)F)s1 [Synthesis Example 54, (R)-5-[4-(3-Chloro-4-fluorophenyl)-5-hydroxy-5,6-dihydropyridin-1(2H)-yl]-2-{[5-(trifluoromethyl)thiophen-2-yl]methyl}-1,2,4-triazin-3(2H)-one] | 3.1
O=c1nc(N2Cc3ccc(OC(F)F)cc3C(O)C2)cnn1Cc1cnc(C(F)(F)F)s1 (stereo not drawn) [Synthesis Example 55] | 1000
